What was measured:
[1] = tested on: phosphorylated 4E-BP1 Thr37/46 (p4E-BP1 Thr37/46), mTORC1 activity, PC3 cells; test: mTOR target engagement assay, immunofluorescent cell-based, p4E-BP1 Thr37/46 readout (mTORC1 activity); settings: Homo sapiens, PC-3, Table 3-1; PC3 cells; read-out: p4E-BP1 Thr37/46 IC50
In short: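 Seed PC3 cells overnight; treat with compound dilutions for ninety minutes at 37° C; fix with glyoxal and block; stain with anti-p4E-BP1 Thr37/46 overnight at 4° C, then fluorescent secondary; read fluorescence and fit IC50 against DMSO-only controls.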

[2] = tested on: phosphorylated AKT Ser473 (pAKT S473), mTORC2 activity, PC3 cells; test: mTOR target engagement assay, immunofluorescent cell-based, pAKT S473 readout (mTORC2 activity); settings: Homo sapiens, PC-3, Table 3-1; PC3 cells
In short: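 After blocking, cells were stained overnight at 4 °C with anti-pAKT S473 antibody, then a fluorescent secondary; inhibition was read as reduced fluorescence intensity.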

Row | Structure (SMILES) | IC50 [1] [nM] | IC50 [2] [nM]
1 | Cc1n[nH]cc1C(=O)N1[C@@H]2CC[C@H]1C[C@H](c1nc3c(-c4ccc(-c5ccccc5)nc4)cnn3c(N)c1S(C)(=O)=O)C2 [Compound 3.80, ((1R,3s,5S)-3-(7-amino-6-(methylsulfonyl)-3-(6-phenylpyridin-3-yl)pyrazolo[1,5-a]pyrimidin-5-yl)-8-azabicyclo[3.2.1]octan-8-yl)(3-methyl-1H-pyrazol-4-yl)methanone] | 1 to 100 | 1 to 100
2 | Cc1cc(C(=O)N2[C@@H]3CC[C@H]2C[C@H](c2nc4c(-c5ccc(-c6ccccc6)nc5)ccn4c(N)c2S(C)(=O)=O)C3)[nH]n1 [Compound 3.81, ((1R,3s,5S)-3-(7-amino-6-(methyslulfonyl)-3-(6-phenylpyridin-3-yl)pyrazolo[1,5-a]pyrimidin-5-yl)-8-azabicyclo[3.2.1]octan-8-yl)(3-methyl-1H-pyrazol-5-yl)methanone] | 100 to 1000 | 100 to 1000
3 | Cc1n[nH]c(CC(=O)N2[C@@H]3CC[C@H]2C[C@H](c2nc4c(-c5ccc(-c6ccccc6)nc5)cnn4c(N)c2S(C)(=O)=O)C3)n1 [Compound 3.82, 1-((1R,3s,5S)-3-(7-amino-6-(methylsulfonyl)-3-(6-phenylpyridin-3-yl)pyrazolo[1,5-a]pyrimidin-5-yl)-8-azabicyclo[3.2.1]octan-8-yl)-2-(3-methyl-1H-1,2,4-triazol-5-yl)ethanone] | 100 to 1000 | 100 to 1000
4 | CS(=O)(=O)c1c([C@@H]2C[C@H]3CC[C@@H](C2)N3C(=O)c2cn[nH]c2)nc2c(-c3ccc(-c4ccccc4)nc3)cnn2c1N [Compound 3.83, ((1R,3s,5S)-3-(7-amino-6-(methylsulfonyl)-3-(6-phenylpyridin-3-yl)pyrazolo[1,5-a]pyrimidin-5-yl)-8-azabicyclo[3.2.1]octan-8-yl)(1H-pyrazol-4-yl)methanone] | 1 to 100 | 1 to 100
5 | CS(=O)(=O)c1c([C@@H]2C[C@H]3CC[C@@H](C2)N3C(=O)c2cc(CO)n[nH]2)nc2c(-c3ccc(-c4ccccc4)nc3)cnn2c1N [Compound 3.84, ((1R,3s,5S)-3-(7-amino-6-(methylsulfonyl)-3-(6-phenylpyridin-3-yl)pyrazolo[1,5-a]pyrimidin-5-yl)-8-azabicyclo[3.2.1]octan-8-yl)(3-(hydroxymethyl)-1H-pyrazol-5-yl)methanone] | 100 to 1000 | 1 to 100
6 | CS(=O)(=O)c1c([C@@H]2C[C@H]3CC[C@@H](C2)N3C(=O)c2cc(CN)n[nH]2)nc2c(-c3ccc(-c4ccccc4)nc3)cnn2c1N [Compound 3.85, ((1R,3s,5S)-3-(7-amino-6-(methylsulfonyl)-3-(6-phenylpyridin-3-yl)pyrazolo[1,5-a]pyrimidin-5-yl)-8-azabicyclo[3.2.1]octan-8-yl)(3-(aminomethyl)-1H-pyrazol-5-yl)methanone] | 1 to 100 | 1 to 100
7 | CS(=O)(=O)c1c([C@@H]2C[C@H]3CC[C@@H](C2)N3C(=O)c2nnc[nH]2)nc2c(-c3cnn(-c4ccc(F)cc4)c3)cnn2c1N [Compound 3.88, ((1R,3s,5S)-3-(7-amino-3-(1-(4-fluorophenyl)-1H-pyrazol-4-yl)-6-(methyslulfonyl)pyrazolo[1,5-a]pyrimidin-5-yl)-8-azabicyclo[3.2.1]octan-8-yl)(4H-1,2,4-triazol-3-yl)methanone] | 1000 to 10000 | 100 to 1000
8 | CC(=O)Nc1nnc(C(=O)N2[C@@H]3CC[C@H]2C[C@H](c2nc4c(-c5ccc(-c6ccccc6)nc5)cnn4c(N)c2S(C)(=O)=O)C3)[nH]1 [Compound 3.89] | 100 to 1000 | 100 to 1000
9 | CS(=O)(=O)c1c([C@@H]2C[C@H]3CC[C@@H](C2)N3C(=O)c2cn[nH]c2N)nc2c(-c3ccc(-c4ccccc4)nc3)cnn2c1N [Compound 3.90, (5-amino-1H-pyrazol-4-yl)((1R,3s,5S)-3-(7-amino-6-(methylsulfonyl)-3-(6-phenylpyridin-3-yl)pyrazolo[1,5-a]pyrimidin-5-yl)-8-azabicyclo[3.2.1]octan-8-yl)methanone] | 1 to 100 | 1 to 100
10 | CS(=O)(=O)c1c([C@@H]2C[C@H]3CC[C@@H](C2)N3C(=O)C(F)(F)F)nc2c(-c3ccc(-c4ccccc4)nc3)cnn2c1N [Compound 3.91, 1-((1R,3s,5S)-3-(7-amino-6-(methylsulfonyl)-3-(6-phenylpyridin-3-yl)pyrazolo[1,5-a]pyrimidin-5-yl)-8-azabicyclo[3.2.1]octan-8-yl)-2,2,2-trifluoroethanone] | 1000 to 10000 | 1000 to 10000
11 | COc1ccc(-c2ccc(-c3cnn4c(N)c(S(C)(=O)=O)c([C@@H]5C[C@H]6CC[C@@H](C5)N6C(=O)c5nnc[nH]5)nc34)cn2)cc1C#N [Compound 3.92, 5-(5-(5-((1R,3s,5S)-8-(4H-1,2,4-triazole-3-carbonyl)-8-azabicyclo[3.2.1]octan-3-yl)-7-amino-6-(methylsulfonyl)pyrazolo[1,5-a]pyrimidin-3-yl)pyridin-2-yl)-2-methoxybenzonitrile] | 100 to 1000 | 100 to 1000
12 | CN(C)c1nnc(C(=O)N2[C@@H]3CC[C@H]2C[C@H](c2nc4c(-c5ccc(-c6ccccc6)nc5)cnn4c(N)c2S(C)(=O)=O)C3)[nH]1 [Compound 3.93, ((1R,3s,5S)-3-(7-amino-6-(methylsulfonyl)-3-(6-phenylpyridin-3-yl)pyrazolo[1,5-a]pyrimidin-5-yl)-8-azabicyclo[3.2.1]octan-8-yl)(5-(dimethylamino)-4H-1,2,4-triazol-3-yl)methanone] | 100 to 1000 | 100 to 1000
13 | CS(=O)(=O)c1c([C@@H]2C[C@H]3CC[C@@H](C2)N3C(=O)c2cn[nH]c2O)nc2c(-c3ccc(-c4ccccc4)nc3)cnn2c1N [Compound 3.94, ((1R,3s,5S)-3-(7-amino-6-(methylsulfonyl)-3-(6-phenylpyridin-3-yl)pyrazolo[1,5-a]pyrimidin-5-yl)-8-azabicyclo[3.2.1]octan-8-yl)(5-hydroxy-1H-pyrazol-4-yl)methanone] | 100 to 1000 | 100 to 1000
14 | CS(=O)(=O)c1c([C@@H]2C[C@H]3CC[C@@H](C2)N3C(=O)c2nnc[nH]2)nc2c(-c3cnn(-c4ccccc4)c3)cnn2c1N [Compound 3.97, ((1R,3s,5S)-3-(7-amino-6-(methylsulfonyl)-3-(1-phenyl-1H-pyrazol-4-yl)pyrazolo[1,5-a]pyrimidin-5-yl)-8-azabicyclo[3.2.1]octan-8-yl)(4H-1,2,4-triazol-3-yl)methanone] | 1 to 100 | 1 to 100
15 | CS(=O)(=O)c1c([C@@H]2C[C@H]3CC[C@@H](C2)N3C(=O)c2nc(N)n[nH]2)nc2c(-c3ccc(-c4ccccc4)nc3)cnn2c1N [Compound 3.98, (3-amino-1H-1,2,4-triazol-5-yl)((1R,3s,5S)-3-(7-amino-6-(methylsulfonyl)-3-(6-phenylpyridin-3-yl)pyrazolo[1,5-a]pyrimidin-5-yl)-8-azabicyclo[3.2.1]octan-8-yl)methanone] | 1 to 100 | 1 to 100
16 | CS(=O)(=O)c1c([C@@H]2C[C@H]3CC[C@@H](C2)N3C(=O)c2nc(C(F)(F)F)n[nH]2)nc2c(-c3ccc(-c4ccccc4)nc3)cnn2c1N [Compound 3.99, ((1R,3s,5S)-3-(7-amino-6-(methylsulfonyl)-3-(6-phenylpyridin-3-yl)pyrazolo[1,5-a]pyrimidin-5-yl)-8-azabicyclo[3.2.1]octan-8-yl)(3-(trifluoromethyl)-1H-1,2,4-triazol-5-yl)methanone] | 1000 to 10000 | 1000 to 10000
17 | COc1ccc(-c2ccc(-c3cnn4c(N)c(S(C)(=O)=O)c([C@@H]5C[C@H]6CC[C@@H](C5)N6C(=O)c5nnc(N)[nH]5)nc34)cn2)cc1F [Compound 3.100, ((1R,3s,5S)-3-(7-amino-3-(6-(3-fluoro-4-methoxyphenyl)pyridin-3-yl)-6-(methylsulfonyl)pyrazolo[1,5-a]pyrimidin-5-yl)-8-azabicyclo[3.2.1]octan-8-yl)(5-amino-4H-1,2,4-triazol-3-yl)methanone] | 1 to 100 | 1 to 100
18 | CS(=O)(=O)c1c([C@@H]2C[C@H]3CC[C@@H](C2)N3C(=O)c2nnc[nH]2)nc2c(-c3ccc(-c4ccccn4)nc3)cnn2c1N [Compound 3.102, ((1R,3s,5S)-3-(3-(2,2′-bipyridin-5-yl)-7-amino-6-(methylsulfonyl)pyrazolo[1,5-a]pyrimidin-5-yl)-8-azabicyclo[3.2.1]octan-8-yl)(4H-1,2,4-triazol-3-yl)methanone] | 1 to 100 | 1 to 100
19 | CS(=O)(=O)c1c([C@@H]2C[C@H]3CC[C@@H](C2)N3C(=O)c2nnc[nH]2)nc2c(-c3ccc(-c4ccccc4F)nc3)cnn2c1N [Compound 3.104, ((1R,3s,5S)-3-(7-amino-3-(6-(2-fluorophenyl)pyridin-3-yl)-6-(methylsulfonyl)pyrazolo[1,5-a]pyrimidin-5-yl)-8-azabicyclo[3.2.1]octan-8-yl)(4H-1,2,4-triazol-3-yl)methanone] | 1 to 100 | 1 to 100
20 | CS(=O)(=O)c1c([C@@H]2C[C@H]3CC[C@@H](C2)N3C(=O)c2nnc[nH]2)nc2c(-c3ccc(-c4ccc(F)cc4)nc3)cnn2c1N [Compound 3.105, ((1R,3s,5S)-3-(7-amino-3-(6-(4-fluorophenyl)pyridin-3-yl)-6-(methylsulfonyl)pyrazolo[1,5-a]pyrimidin-5-yl)-8-azabicyclo[3.2.1]octan-8-yl)(4H-1,2,4-triazol-3-yl)methanone] | 1 to 100 | 1 to 100
